Tested on: Monoclonal antibody cocktail-induced arthritis mice
Experiment: Arthritis suppressing effects on arthritis-induced mice, Part 3
Type: in vivo
Details: 10 mg/kg intravenously once a day from day 4, 10 days
Experimental: Monoclonal antibody cocktail-induced arthritis mice were used to examine arthritis suppressing effects of peptides which are indicated as R13 and R17 in the section (3) in Example 2. Arthritis was caused by intravenous administration of 2 mg/mouse of an arthritis-inducing monoclonal antibody cocktail and three days later, intraperitoneal administration of 50 μg/mouse of LPS. The peptides were given via intraperitoneal or intravenous administration at a dose of 10 mg/kg once a day for a period of 10 consecutive days from four days after the administration of the arthritis-inducing monoclonal antibody cocktail, and arthritis suppressing effect was examined in terms of clinical score and hind-limb volume determination.
The required amount was calculated for each peptide, based on the animal weight. Each peptide solution was prepared using physiological saline (at 0.1 mg/ml for R1, 1 mg/ml for R2, and 1 or 10 mg/ml for R13 and R17), and cold stored. […]
Results of examinations were expressed by mean value±standard error and analyzed using EXSAS (Version 7.1.6, Arm Systex Co., Ltd.). […] Quantitative data, such as body weights and leg volumes, were subjected to Bartlett's test, followed by Dunnett's multiple comparison test when the variance was uniform or Steel's multiple comparison test when the variance was not uniform.

KFTSKVPGLYYFVYH (Immunoglobulin binding peptide) [R17]
arthritis-suppressing effect (clinical score): arthritis-suppressing effects comparable to those of the groups receiving administration of R1 (intravenously) or R2 (intraperitoneally)
